Series [1] can be described thus: Lyophilisation Solubility Assay (LYSA). In kind it is physicochemical. As to conditions: aqueous buffer, thermodynamic from solid; 0.05 M phosphate buffer, pH 6.5; * = detection limit. The protocol: The solubility of compounds of present invention was assessed by LYSA assay. Samples were prepared in duplicate from 10 mM DMSO stock solutions (20 μL) diluted in 30 μL pure DMSO. After evaporation of DMSO with a centrifugal vacuum evaporator, the residue was dissolved in 0.05 M phosphate buffer (150 μL, pH 6.5), stirred for one hour and shook for two hours. After one night, the solution was filtered using a microtiter filter plate. Then the filtrate and its 1/10 dilution were analyzed by HPLC-UV. In addition a four-point calibration curve was prepared from the 10 mM stock solutions and used for the solubility determination of the compounds.

Series [2] concerns K. pneumoniae (ATCC10031). The series is described as follows: 50% growth inhibitory concentration (IC50) determination assay, K. pneumoniae. The series is classed as cell-based. To be noted: Klebsiella pneumoniae, ATCC10031; growth inhibition, Iso-Sensitest broth, OD 600 nm over 16 h; * = detection limit; read-out: IC50 (μM) K. pneumoniae ATCC10031. An outline of the steps:
(§1)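 Two-fold dilutions (50 to 0.097 μM final) tested in Iso-Sensitest broth at ~5×10^5 CFU/mL, 35±2 °C. OD600 read every 20 min over 16 h; IC50 derived from growth inhibition during logarithmic phase.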

A short description of series [3]: Cytotoxicity assay (HepG2, CellTiter-Blue). The series is classed as cell-based. To be noted: human; HepG2 cells, 3 days treatment; * = detection limit. The method, then:
The cytotoxicity of compounds of present invention was assessed by HepG2 assay. HepG2 cells (ATCC HB-8065™) were seeded into 96-well plates (1.2×10^4 cells per well) and treated with compounds for 3 days, cell viability was measured at day 3 post compound treatment using the CellTiter-Blue® Cell Viability Assay (Promega, Cat. No. G8082). 20 μL of Cell titer blue buffer were added to each well of the cells, incubated for 3 hours at 37° C., and the fluorescence value was measured by a plate reader (Molecular Device SpectraMax M2). The CC50 value of each compound is plotted with GraphPad Prism using four parameter logistic equation.
On the technique in general: Resazurin is reduced to fluorescent resorufin, in cell work by metabolically active cells.

The test system of another series is E. coli (ATCC 25922). The series is described as follows: Minimal Inhibitory Concentration (MIC) assay. In kind it is cell-based. To be noted: Escherichia coli, ATCC25922; CAMHB, 20 hours at 35° C.; read-out: MIC (μg/mL) E. coli ATCC 25922.
In the next series the test system is E. coli (BW25113). The series is described as follows: 50% growth inhibitory concentration (IC50) determination assay, E. coli. In kind it is cell-based. To be noted: Escherichia coli, BW25113; growth inhibition, Iso-Sensitest broth, OD 600 nm over 16 h; read-out: IC50 (μM) E. coli K12 BW25113. The procedure, abridged:
as §1

In brackets after ≈: the same amount, converted by molar mass.

For `CNc1c(F)c(F)cc2c1[nH]c1ncc(-c3cncc(C#N)c3)c(-n3cc(CN)c(C(F)(F)F)n3)c12` [Example 1.49, 5-[4-[4-(Aminomethyl)-3-(trifluoromethyl)pyrazol-1-yl]-6,7-difluoro-8-(methylamino)-9H-pyrido[2,3-b]indol-3-yl]pyridine-3-carbonitrile], the solubility (thermodynamic) (usually solubility found after equilibrating the solid with the medium) in series [1] is 14 µg/mL (≈ 28.1 µM). The IC50 (usually the concentration at which inhibition is half-maximal) in series [2] was 0.098 µM; in the series on E. coli (BW25113) it was 0.698 µM. The CC50 (as a rule, the concentration giving 50% cytotoxicity) at 3 days in series [3] came out at 12800 nM. Besides, the MIC in the series on E. coli (ATCC 25922) amounted to 0.359 µg/mL (≈ 0.72 µM).

In series [1], `CCNc1cc(F)cc2c1[nH]c1ncc(-c3cnc(CN)nc3)c(-n3ccc(C(F)(F)F)n3)c12` [Example 1.46, 3-[2-(Aminomethyl)pyrimidin-5-yl]-N-ethyl-6-fluoro-4-[3-(trifluoromethyl)pyrazol-1-yl]-9H-pyrido[2,3-b]indol-8-amine] displayed a solubility (thermodynamic) of 23 µg/mL (≈ 48.9 µM). Also, the IC50 was not above 0.098 µM in series [2] and 0.77 µM in the series with E. coli (BW25113). In addition, half-maximal cytotoxicity in series [3] (CC50 at 3 days) was put at 27400 nM.

In series [1], `CNc1cc(F)cc2c1[nH]c1nc(Oc3cnc(C)nc3)nc(N3C[C@H]4C[C@@H]3C[C@H]4N)c12` [GP-6, reference compound] had a solubility (thermodynamic) of less than 1 µg/mL. Moreover, the figures for the IC50 (in series [2]; in the series with E. coli (BW25113)) were not above 0.098 µM and 0.17 µM, respectively. The CC50 at 3 days in series [3] came to 5600 nM. For the same compound, in the series on E. coli (ATCC 25922), the MIC amounted to 0.127 µg/mL (≈ 0.292 µM).

Source of the values: patent US20210309658A1, “ARYL COMPOUNDS FOR THE TREATMENT AND PROPHYLAXIS OF BACTERIAL INFECTION” (Hoffmann-La Roche Inc., priority 2018, published 2021).
